Experiments:
[1] = tested on: HCV genotype 1a (H77 strain) replicon in HUH-7 cells; test: HCV replicon luciferase reporter assay, genotype 1a; type: cell-based; settings: Hepatitis C virus, Huh-7, 72 h, HCV genotype 1a replicon luciferase assay, 3 days incubation, range class, read-out: LE_1a (EC50, range)
Outline: (§1)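 Replicon inhibition for both genotypes was measured as Renilla luciferase signal (EnduRen, 7.5 μM final, 2 h) after 3-day, 37° C exposure of replicon-bearing HUH-7 cells in 4% FCS DMEM, 0.5% DMSO. The 1b construct carries S1179I; the 1a H77 construct carries P1496L and S2204I. Twenty-point, 3-fold dilutions were fitted four-parametrically for EC50, and CC50 was taken from multiplexed Cell Titer-Blue.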

[2] = tested on: HCV genotype 1b (Con1) replicon in HUH-7 cells; test: HCV replicon luciferase reporter assay, genotype 1b; type: cell-based; settings: Hepatitis C virus, Huh-7, 72 h, HCV genotype 1b replicon luciferase assay, 3 days incubation, range class, read-out: LE_1b (EC50, range)
Outline: as §1

COc1ccc2c(O[C@@H]3C[C@H]4C(=O)N[C@]5(C(=O)NS(=O)(=O)C6CC6)C[C@H]5/C=C\CC[C@@H](C)C[C@@H](C)[C@H](NC(=O)OC(C)(C)C(C)(F)F)C(=O)N4C3)nc(N(C)C)cc2c1 [Compound 3132, 3,3-difluoro-2-methylbutan-2-yl((2R,6S,7R,9R,13aS,14aR,16aS,Z)-14a-((cyclopropylsulfonyl)carbamoyl)-2-((3-(dimethylamino)-6-methoxyisoquinolin-1-yl)oxy)-7,9-dimethyl-5,16-dioxo-1,2,3,5,6,7,8,9,10,11,13a,14,14a,15,16,16a-hexadecahydrocyclopropa[e]pyrrolo[1,2-a][1,4]diazacyclopentadecin-6-yl)carbamate]
EC50 [1]: < 5.46 nM | EC50 [2]: < 5.46 nM

COc1ccc2c(O[C@@H]3C[C@H]4C(=O)N[C@]5(C(=O)NS(=O)(=O)C6CC6)C[C@H]5/C=C\CC[C@@H](C)C[C@@H](C)[C@H](NC(=O)O[C@H](C)C(F)(F)F)C(=O)N4C3)nc(N(C)C)cc2c1 [Compound 3134, (R)-1,1,1-trifluoropropan-2-yl ((2R,6S,7R,9R,13aS,14aR,16aS,Z)-14a-((cyclopropylsulfonyl)carbamoyl)-2-((3-(dimethylamino)-6-methoxyisoquinolin-1-yl)oxy)-7,9-dimethyl-5,16-dioxo-1,2,3,5,6,7,8,9,10,11,13a,14,14a,15,16,16a-hexadecahydrocyclopropa[e]pyrrolo[1,2-a][1,4]diazacyclopentadecin-6-yl)carbamate]
EC50 [1]: < 5.46 nM | EC50 [2]: < 5.46 nM

COc1cnc(O[C@@H]2C[C@H]3C(=O)N[C@]4(C(=O)NS(=O)(=O)C5(C)CC5)C[C@H]4/C=C\CC[C@H](C)C[C@@H](C)[C@H](NC(=O)OC(C)(C)C)C(=O)N3C2)c2ccc(N(C)C)cc12 [Compound 3135, tert-butyl ((2R,6S,7R,9S,13aS,14aR,16aS,Z)-2-((6-(dimethylamino)-4-methoxyisoquinolin-1-yl)oxy)-7,9-dimethyl-14a-(((1-methylcyclopropyl)sulfonyl)carbamoyl)-5,16-dioxo-1,2,3,5,6,7,8,9,10,11,13a,14,14a,15,16,16a-hexadecahydrocyclopropa[e]pyrrolo[1,2-a][1,4]diazacyclopentadecin-6-yl)carbamate]
EC50 [1]: < 5.46 nM | EC50 [2]: < 5.46 nM

COc1cnc(O[C@@H]2C[C@H]3C(=O)N[C@]4(C(=O)NS(=O)(=O)C5(C)CC5)C[C@H]4/C=C\CC[C@@H](C)C[C@@H](C)[C@H](NC(=O)OC(C)(C)C)C(=O)N3C2)c2ccc(N(C)C)cc12 [Compound 3136, tert-butyl ((2R,6S,7R,9R,13aS,14aR,16aS,Z)-2-((6-(dimethylamino)-4-methoxyisoquinolin-1-yl)oxy)-7,9-dimethyl-14a-(((1-methylcyclopropyl)sulfonyl)carbamoyl)-5,16-dioxo-1,2,3,5,6,7,8,9,10,11,13a,14,14a,15,16,16a-hexadecahydrocyclopropa[e]pyrrolo[1,2-a][1,4]diazacyclopentadecin-6-yl)carbamate]
EC50 [1]: < 5.46 nM | EC50 [2]: < 5.46 nM

COc1cnc(O[C@@H]2C[C@H]3C(=O)N[C@]4(C(=O)NS(=O)(=O)C5(C)CC5)C[C@H]4/C=C\CC[C@H](C)C[C@@H](C)[C@H](NC(=O)OC(C)(C)C(F)(F)F)C(=O)N3C2)c2ccc(N(C)C)cc12 [Compound 3137, 1,1,1-trifluoro-2-methylpropan-2-yl((2R,6S,7R,9S,13aS,14aR,16aS,Z)-2-((6-(dimethylamino)-4-methoxyisoquinolin-1-yl)oxy)-7,9-dimethyl-14a-(((1-methylcyclopropyl)sulfonyl)carbamoyl)-5,16-dioxo-1,2,3,5,6,7,8,9,10,11,13a,14,14a,15,16,16a-hexadecahydrocyclopropa[e]pyrrolo[1,2-a][1,4]diazacyclopentadecin-6-yl)carbamate]
EC50 [1]: < 5.46 nM | EC50 [2]: < 5.46 nM

COc1cnc(O[C@@H]2C[C@H]3C(=O)N[C@]4(C(=O)NS(=O)(=O)C5(C)CC5)C[C@H]4/C=C\CC[C@@H](C)C[C@@H](C)[C@H](NC(=O)OC(C)(C)C(F)(F)F)C(=O)N3C2)c2ccc(N(C)C)cc12 [Compound 3138, 1,1,1-trifluoro-2-methylpropan-2-yl((2R,6S,7R,9R,13aS,14aR,16aS,Z)-2-((6-(dimethylamino)-4-methoxyisoquinolin-1-yl)oxy)-7,9-dimethyl-14a-(((1-methylcyclopropyl)sulfonyl)carbamoyl)-5,16-dioxo-1,2,3,5,6,7,8,9,10,11,13a,14,14a,15,16,16a-hexadecahydrocyclopropa[e]pyrrolo[1,2-a][1,4]diazacyclopentadecin-6-yl)carbamate]
EC50 [1]: < 5.46 nM | EC50 [2]: < 5.46 nM

CCOc1ccc2c(O[C@@H]3C[C@H]4C(=O)N[C@]5(C(=O)NS(=O)(=O)C6(C)CC6)C[C@H]5/C=C\CC[C@H](C)C[C@@H](C)[C@H](NC(=O)OC(C)(C)C(F)(F)F)C(=O)N4C3)ncc(OC)c2c1 [Compound 3139, 1,1,1-trifluoro-2-methylpropan-2-yl((2R,6S,7R,9S,13aS,14aR,16aS,Z)-2-((6-ethoxy-4-methoxyisoquinolin-1-yl)oxy)-7,9-dimethyl-14a-(((1-methylcyclopropyl)sulfonyl)carbamoyl)-5,16-dioxo-1,2,3,5,6,7,8,9,10,11,13a,14,14a,15,16,16a-hexadecahydrocyclopropa[e]pyrrolo[1,2-a][1,4]diazacyclopentadecin-6-yl)carbamate]
EC50 [1]: < 5.46 nM | EC50 [2]: < 5.46 nM

CCOc1ccc2c(O[C@@H]3C[C@H]4C(=O)N[C@]5(C(=O)NS(=O)(=O)C6(C)CC6)C[C@H]5/C=C\CC[C@@H](C)C[C@@H](C)[C@H](NC(=O)OC(C)(C)C(F)(F)F)C(=O)N4C3)ncc(OC)c2c1 [Compound 3140, 1,1,1-trifluoro-2-methylpropan-2-yl((2R,6S,7R,9R,13aS,14aR,16aS,Z)-2-((6-ethoxy-4-methoxyisoquinolin-1-yl)oxy)-7,9-dimethyl-14a-(((1-methylcyclopropyl)sulfonyl)carbamoyl)-5,16-dioxo-1,2,3,5,6,7,8,9,10,11,13a,14,14a,15,16,16a-hexadecahydrocyclopropa[e]pyrrolo[1,2-a][1,4]diazacyclopentadecin-6-yl)carbamate]
EC50 [1]: < 5.46 nM | EC50 [2]: < 5.46 nM

COc1cnc(O[C@@H]2C[C@H]3C(=O)N[C@]4(C(=O)NS(=O)(=O)C5(CF)CC5)C[C@H]4/C=C\CC[C@H](C)C[C@@H](C)[C@H](NC(=O)OC(C)(C)C)C(=O)N3C2)c2ccc(N(C)C)cc12 [Compound 3141, tert-butyl ((2R,6S,7R,9S,13aS,14aR,16aS,Z)-2-((6-(dimethylamino)-4-methoxyisoquinolin-1-yl)oxy)-14a-(((1-(fluoromethyl)cyclopropyl)sulfonyl)carbamoyl)-7,9-dimethyl-5,16-dioxo-1,2,3,5,6,7,8,9,10,11,13a,14,14a,15,16,16a-hexadecahydrocyclopropa[e]pyrrolo[1,2-a][1,4]diazacyclopentadecin-6-yl)carbamate]
EC50 [1]: < 5.46 nM | EC50 [2]: < 5.46 nM

COc1cnc(O[C@@H]2C[C@H]3C(=O)N[C@]4(C(=O)NS(=O)(=O)C5(CF)CC5)C[C@H]4/C=C\CC[C@@H](C)C[C@@H](C)[C@H](NC(=O)OC(C)(C)C)C(=O)N3C2)c2ccc(N(C)C)cc12 [Compound 3142, tert-butyl ((2R,6S,7R,9R,13aS,14aR,16aS,Z)-2-((6-(dimethylamino)-4-methoxyisoquinolin-1-yl)oxy)-14a-(((1-(fluoromethyl)cyclopropyl)sulfonyl)carbamoyl)-7,9-dimethyl-5,16-dioxo-1,2,3,5,6,7,8,9,10,11,13a,14,14a,15,16,16a-hexadecahydrocyclopropa[e]pyrrolo[1,2-a][1,4]diazacyclopentadecin-6-yl)carbamate]
EC50 [1]: < 5.46 nM | EC50 [2]: < 5.46 nM

COc1cnc(O[C@@H]2C[C@H]3C(=O)N[C@]4(C(=O)NS(=O)(=O)C5(CF)CC5)C[C@H]4/C=C\CC[C@H](C)C[C@@H](C)[C@H](NC(=O)OC(C)(C)C(F)(F)F)C(=O)N3C2)c2ccc(N(C)C)cc12 [Compound 3143, 1,1,1-trifluoro-2-methylpropan-2-yl((2R,6S,7R,9S,13aS,14aR,16aS,Z)-2-((6-(dimethylamino)-4-methoxyisoquinolin-1-yl)oxy)-14a-(((1-(fluoromethyl)cyclopropyl)sulfonyl)carbamoyl)-7,9-dimethyl-5,16-dioxo-1,2,3,5,6,7,8,9,10,11,13a,14,14a,15,16,16a-hexadecahydrocyclopropa[e]pyrrolo[1,2-a][1,4]diazacyclopentadecin-6-yl)carbamate]
EC50 [1]: < 5.46 nM | EC50 [2]: < 5.46 nM

COc1cnc(O[C@@H]2C[C@H]3C(=O)N[C@]4(C(=O)NS(=O)(=O)C5(CF)CC5)C[C@H]4/C=C\CC[C@@H](C)C[C@@H](C)[C@H](NC(=O)OC(C)(C)C(F)(F)F)C(=O)N3C2)c2ccc(N(C)C)cc12 [Compound 3144, 1,1,1-trifluoro-2-methylpropan-2-yl((2R,6S,7R,9R,13aS,14aR,16aS,Z)-2-((6-(dimethylamino)-4-methoxyisoquinolin-1-yl)oxy)-14a-(((1-(fluoromethyl)cyclopropyl)sulfonyl)carbamoyl)-7,9-dimethyl-5,16-dioxo-1,2,3,5,6,7,8,9,10,11,13a,14,14a,15,16,16a-hexadecahydrocyclopropa[e]pyrrolo[1,2-a][1,4]diazacyclopentadecin-6-yl)carbamate]
EC50 [1]: < 5.46 nM | EC50 [2]: < 5.46 nM
